The nature of data set [1]: FuFA-CoA detection in liver by mass spectrometry. The following applies: livers of FuFA-treated HFD mice. In kind it is in vivo. On the procedure: Liver powder (50 mg) was used and dissolved in plastic Eppendorf with […] of milli-Q purified water and vortexed well. Then, 200 μl of ACN containing 400 nM n-Heptadecanoyl coenzyme A lithium salt as internal standard (C17-CoA standard, NuCheck) was added, vortexed thoroughly, and centrifuged for 4 min at 10000 g at 4° C. For protein precipitation, the supernatant was transferred to a new tube and 20 μl was diluted with 180 μl of ACN/water (4:1 ratio) in clean mass spectrometry vials for analysis of CoA's.
FuFA-CoA in liver and primary hepatocytes were detected with an API 5000™ mass spectrometer after chromatographic separation using a 150×2 mm Luna® 5 μm C8 100 C8 Å LC column (OOF-4040-BO) with 5% solvent B (ACN, 0.1% ammonium) at a flow rate of 0.35 ml/min using a system solvent started in 5% solvent B (ACN, 0.1% ammonium hydroxide) and 95% of solvent A(water+0.1% ammonium hydroxide) for 30 seconds, followed by an increase from 5-65% gradient of solvent B over 6 min, followed by re equilibrate condition. Quantitation of analyte and internal standard peak areas was determined using the Quantitation Wizard in Sciex's Analyst® Software.

A short description of data set [2]: Energy expenditure and respiratory exchange ratio (FIG. 6D). In kind it is in vivo. The following applies: mice after treatment.
The next data set concerns liver of HFD mice. The data set can be described thus: Untargeted/targeted metabolomic mass spectrometry of liver (sphingolipids, acylcarnitine). The format is in vivo. On the procedure: Liver powder (50 mg) was resuspended in 500 μL of H2O and extracted using ethyl acetate (1 mL). Phases were separated by centrifugation for 5 min at 1500 g at 4° C. and the organic phase was collected and dried under nitrogen gas. For acetonitrile precipitation, 200 μL of ice-cold ACN was added to liver tissue homogenized in water and vortexed thoroughly. Samples were centrifuged for 5 min at 1500 g at 4° C. and all the phases were removed and dried under nitrogen gas. Dried samples were reconstituted with McOH and transferred to clean mass spectrometry vials for analysis.
Mass spectrometry data was collected using a Q Exactive Orbitrap (ThermoFisher Scientific) to obtain high-resolution accurate mass data in positive and negative ion modes. Two different Chromatography system were used: The organic phase from Bligh and Dyer extraction sample was performed using a 100×2 mm Luna® 5 μm C18(2) column (phenomenex,00D-4252-BO) with a 0-100% gradient of solvent B (90:10 isopropyl alcohol, ACS reagent for HPLC (Honeywell #AH323):ACN, 0.1% formic acid, reagent grade (Sigma #F0507) and solvent A (70:30 Water, Optima™ LC/MS Grade (Fisher #W6500):acetonitrile, 0.1% formic acid) over 20 min, followed by 100% solvent B for 6 min before a return to 0% solvent B for 4 min at a flow rate of 0.650 mL/min. Chromatography for aqueous Bligh and Dyer phase and acetonitrile precipitation extract was performed using the same column with a gradient of 10-100% solvent D (ACN, 0.1% formic acid) and solvent C (water, 0.1% formic acid) over 18 min, followed by 100% solvent D for 6 min before returning to 10% solvent D for 6 min at a flow rate of 0.650 mL/minute. […]
Ceramide and carnitine conjugates were extracted in the presence of ceramide standard (18:1/17:0) (N-heptadecanoyl-D-erythro-sphingosine, Avanti Polar Lipids #860517) using ethyl acetate and quantified using mass spectrometry.
Mass spectrometry data was collected using an API 5000 LC/MS/MS in positive ion mode. […] Quantitation of analyte and internal standard peak areas was determined using the Quantitation Wizard in Sciex's Analyst® Software.

The test system of the next data set is liver mitochondria. The data set can be described thus: Citrate synthase activity and Oroboros analysis of liver mitochondria flux. In kind it is in vivo, mice. The note with it: for increase in citrate synthase activity (CSA) vs veh: 50 mg/kg, 11 weeks. The source says:
A second cohort of mice was set up to confirm the effect of 11U3-2M on mitochondria and fatty acid (FA) β-oxidation using Oroboros analysis in the HFD but also in LFD models. Male C57BL/6J diet-induced obesity (C57BL/6J DIO, #380050) and male C57BL/6J diet-induced obesity control mice (C57BL/6J DIO Control, #380056) were purchased from Jackson Laboratory (Bar Harbor, ME, USA) at 15 weeks of age. Mice were continuously feeding either HFD or LFD during transport and upon reception. Mice were fed for 4 more weeks before starting the treatment. While continuing the HFD (n=8 per group) or LFD (n=8 per group), mice were treated with the same formulation as the first cohort using only 11U3-2M (50 mg/kg) or veh for 11 weeks. Mice were fasted for 5 h and received a single intraperitoneal injection of 50 μl of D31-palmitic acid (Cambridge Isotope, 3 μM, #dlm-215-1) in PEG400/Saline (2:1) and 1.5% of octanoic acid solution 2h before sacrifice in order to study FA metabolism. Blood and tissues were harvested and stored as described above.

One molecule from US20250361217A1, “FATTY ACID COMPOUNDS” (University of Pittsburgh - Of the Commonwealth System of …, priority 2022, published 2025) can be followed below.

Consider `CCCc1ccc(CCCCCCCCCC(C)(C)C(=O)O)o1` [11U3-2M, 2,2-Dimethyl-11-(5-propylfuran-2-yl)undecanoic acid], for which the “FuFA-CoA conjugate in liver (ratio to C17:0-CoA)” value in data set [1] is “significantly elevated”. For the same molecule, in data set [2], the energy expenditure result is “no change” and the respiratory exchange ratio entry is on record as “no change”. The “liver metabolites changed by HFD (untargeted metabolomics)” value in the data set with liver of HFD mice (50 mg/kg) is recorded as “returned the liver to its basal condition”. For the same molecule, the “liver sphingomyelins SM(18:1/16:0), SM(18:1/20:0), SM(18:1/24:0) vs HFD+veh” value with liver of HFD mice (effect relative to that on ceramides) is reported as “analogous”. Further, in the data set on liver of HFD mice (targeted quantification), the “liver ceramides (e.g. Cer(18:1/16:0), Cer(18:1/20:0), total ceramide) vs HFD+veh” value was “significant reduction”. In addition, in the data set on liver mitochondria (HFD mice), the “increase of flux after addition of glutamate, ratio to CSA, vs veh” value is recorded as 34%; the “increase of flux normalized to CSA vs veh” value was found to be 38.3%; the “increase in citrate synthase activity (CSA) vs veh” value was 29%. Also, in the data set with liver mitochondria (LFD and HFD mice), the “flux after addition of succinate (maximum respiration), normalized by CSA” value is listed as “didn't show any significant difference”. For the same molecule, in the data set on liver mitochondria (LFD mice), the “increase of flux after addition of glutamate, ratio to CSA, vs veh” value is on record as 23%; the “increase of flux normalized to CSA vs veh” value was found to be 32.5%; the “increase in citrate synthase activity (CSA) vs veh” value amounted to 27%. In addition, the “flux with pyruvate as the substrate” value with liver mitochondria (normalized to CSA) is “No significant change”. Moreover, the “mitochondria flux (Oroboros), not normalized” value in the data set with liver mitochondria (substrates palmitoylcarnitine and pyruvate) is reported as “significantly higher flux”.
